Results published in patent US8673881B2, “Compositions and methods for the treatment of inflammation” (A.T. Resolve Sarl, priority 2009, dated 2014).

How the values were obtained:
[1] = Chemical stability study, HPLC purity (% area) over time; format: physicochemical; details: for % Area Compound / % Area Impurity: 500 μg/mL ophthalmic formulation, pH 5.5, 5° C.; for time the reference solution was stable: reference solution in water/absolute ethanol (90/10 v/v), stored at 5° C.±3° C., protected from light
Protocol: The chemical stability of compounds 1001 and 1002 was measured via HPLC analysis of the purity of these compounds over time. The purity assay of active components using percent area (% area) and impurities reported as percent area (% area) were measured by HPLC using the following conditions:
A sample diluent was prepared with water/absolute ethanol (90/10 v/v).
Reference solutions of compounds 1001 and 1002 were prepared by weighing approximately 10 mg (±2 mg) of a 1 mg/mL stock solution of compound 1001 or 1002 into a 1 mL amber volumetric flask. Approximately 0.5 mL of sample diluent was added and the solution swirled to mix. The sample was diluted to volume with sample diluent and mixed well. The reference solution for compound 1001 was stable for up to 7 days stored at 5° C.±3° C., protected from light. The reference solution for compound 1002 was stable for up to 3 days stored at 5° C.±3° C., protected from light.
Ophthalmic formulations of compounds 1001 (0.994 g of a 52 mg/mL solution in propylene glycol) or compound 1002 (1.034 g of a 50 mg/mL solution in propylene glycol) were prepared at 500 μg/mL dose strength in potassium phosphate buffer (25 mM, pH 5.5, 0.34 g) with 0.2 M sodium hydroxide solution (q.s.), sodium chloride (0.327 g), polysorbate 80 (0.5% w/v), and purified water (q.s. to 100). Sample solutions of compounds 1001 and 1002 were each prepared by accurately weighing approximately 20 mg of the 500 μg/mL compound formulation into a 1 mL amber volumetric flask. Approximately 0.5 mL of sample diluent was added and the solution gently swirled to mix. The solution was diluted to volume with sample diluent and mixed well.
The following equation was used to calculate the compound 1001 or compound 1002 purity assay (% area) in each sample: Analogue Content(% area)=(Area of analog/Total area of all peaks≧0.10% area)×100.
Impurities≧0.10% area were integrated and reported as % area to 2 decimal places.
Tables 5 and 6 show the results of the chemical stability study of compounds 1001 and 1002, respectively, over the course of 8 weeks at 5° C.

[2] = tested on: signs and symptoms of dry eye; experiment: Study of compound 1001 in dry eye: multi-center, double-masked, randomized, placebo-controlled; format: in vivo, human patients; details: for change in ocular discomfort as compared to vehicle (ORA Ocular Discomfort Scale), improvement: dose C (275.6 μg/mL)
Description: The objective of this study was to compare the efficacy of compound 1001 to placebo (vehicle minus active) for the treatment of the signs and symptoms of dry eye, in a multi-center, double-masked, randomized, placebo-controlled study in which 100 human patients were equally randomized into one of three active treatment groups or placebo and all treatment groups were exposed to identical humidity, temperature, and wind conditions which exacerbated the symptoms of dry eye. During a 14 day study run-in period prior to randomization (e.g., day −14 to day 0), all patients received placebo bilaterally two times per day (BID). At the time of treatment randomization (e.g., day 0), patients were exposed to 90 minutes of identical humidity, temperature, and wind conditions which exacerbated the symptoms of dry eye after which patients were stratified based on the following criterion: Central corneal staining post-exposure<2.5 or >3.0. Patients eligible to be randomized received one of the following treatments to be administered as approximately a 30 μL drop to both eyes BID: 1) Compound 1001 at dose A (26.4 μg/mL) Ophthalmic Solution; 2) Compound 1001 at dose B (87.8 μg/mL) Ophthalmic Solution; 3) Compound 1001 at dose C (275.6 μg/mL) Ophthalmic Solution; 4) Placebo Ophthalmic Solution (Vehicle minus active). Brief Summary of Visit Schedule. […] The primary endpoint of mean ocular discomfort in the conditions for exacerbating the symptoms of dry eye using the ORA Ocular Discomfort Scale (during the 90 minute exposure) was summarized statistically (m, mean, standard deviation, median, min and max), and analyzed with 1-sided t-tests comparing the best dose to placebo with a p-value<0.025 considered significant. […] Ocular discomfort during this exposure period was measured using the ORA Ocular Discomfort Scale with the ocular discomfort score being the average of all time points during exposure. Ocular discomfort was measured again at visit 5 (e.g., day 29). […] Symptoms of grittiness, dryness were measured on environmental day 28 on a visual analog scale of 0-5.

[3] = Ocular PK (distribution) study in Dutch-belted rabbits, topical ocular dosing, compound 1003 measured by LC/MS/MS; format: in vivo; details: topical ocular administration of compounds 1001 and 1002 to rabbits, compared with each other
Protocol: The ocular distribution of compound 1001,
[drawing 220] in the ocular tissues of Dutch-belted rabbits when administered topically to the surface of the eye was evaluated.
Healthy, young adult Dutch-belted rabbits (male/female; at least 1.5 kg) were acclimated for at least 7 days prior to initiation of the study. Prior to the initiation of the study, the eyes of the rabbits were examined to ensure that the eyes were free of any defects that may affect the integrity of the study. Examinations were performed by a qualified observer.
Animals were dosed via the topical ocular route using a pipettor system which delivered a 30 μL dose to each eye. Each animal was dosed at T=0. The right eye received a dose concentration of 300 μg/mL of compound 1001 and the left eye received a dose concentration of 300 μg/mL of compound 1002. At the intervals noted in Table 3, the animals were sacrificed. […]
Spiking solutions for standards were prepared by diluting compound 1003 as its sodium salt (e.g., M is Na) (dissolved in ethanol) in ethanol spanning the concentration range of 0.100 to 4000 ng/mL of compound 1003. Two standard curves were extracted and subsequently analyzed one before and one after the samples. […]
Compound 1003 in the homogenized/extracted/dried/reconstituted samples was analyzed by LC/MS/MS using D4-PGE2 as the internal standard. […]

% Area Compound ([1]; 2 weeks)	% Area Impurity ([1]; 2 weeks)	% Area Compound ([1]; 4 weeks)	% Area Impurity ([1]; 4 weeks)	chemical stability compared (percent purity over time) ([1]; 8 weeks at 5° C., compound 1001 versus compound 1002)	% Area Compound ([1]; 8 weeks)	% Area Impurity ([1]; 8 weeks)	% Area Compound ([1]; Initial)	% Area Impurity ([1]; Initial)	time the reference solution was stable [1]	levels of compound 1003 observed in the aqueous humor, the vitreous and the cornea (FIG. 1) [3]	% Area Compound ([1]; 1 week)	% Area Impurity ([1]; 1 week)	SMILES	dryness, visual analog scale of 0-5, change as compared to vehicle ([2]; day 28, dose C (275.6 μg/mL) topically, FIG. 4)	change in ocular discomfort as compared to vehicle (ORA Ocular Discomfort Scale), improvement ([2]; day 28, approx. 30 μL drop to both eyes BID, FIG. 2)	change in ocular discomfort as compared to vehicle (ORA Ocular Discomfort Scale), improvement ([2]; day 29, 24 hours after last treatment, FIG. 3)
99.03 % Area	0.97 % Area	99.39 % Area	0.61 % Area	better chemical stability	99.31 % Area	0.69 % Area	99.55 % Area	0.45 % Area	up to 7 days	comparable levels			C#CC[C@@H](O)/C=C/C=C/C#C[C@@H](O)CCCC(=O)OC(C)C [Compound 1001]	significant change	~27%	~36%
97.46 % Area	2.55 % Area	96.54 % Area	3.46 % Area		94.95 % Area	5.05 % Area	98.29 % Area	1.71 % Area	up to 3 days	comparable levels	97.58 % Area	2.43 % Area	C#CC[C@@H](O)/C=C/C=C/C#C[C@@H](O)CCCC(=O)OC [Compound 1002]			
